Source: patent US20120059162A1, “FUSED IMIDAZOLE DERIVATIVE HAVING TTK INHIBITORY ACTION” (Oncotherapy Science, Inc., priority 2009, published 2012)

tested on: A549; experiment: A549 assay: screening of cancer cell growth inhibiting compound; assay type: cell-based; conditions: Homo sapiens, 72 h; A549 cells, three days, WST-8; read-out: A549 IC50
Protocol: Screening of Cancer Cell Growth Inhibiting Compound
A cell suspension solution (RERF-LC-AI, A549: 1×10^4/ml, MRC5: 3×10^4/ml and 1×10^5/ml) adjusted to an appropriate concentration with D-MEM (hereinafter, referred to as a culture solution and manufactured by Nacalai Tesque Inc.) supplemented with 10% FBS (HyClone) was added to the wells of a 96-well plate (hereinafter, well plate) at a rate of 100 μL/well and incubated in a CO2 incubator at 37° C. for a day. […] Next, cells were added to each well of the well plate prepared and the above compound dilution solution was added at a rate of 100 μL/well to obtain 200 μL/well. Thereafter, the cells were incubated in the CO2 incubator at 37° C. for further three days. To each well of the well plate, 10 μL of a WST-8 kit (Kishida Chemical Co., Ltd.) solution for counting the number of cells was added and a color reaction was performed in the CO2 incubator for 1 to 4 hours. After the absorbance at 450 nm (reference wavelength: 620 nm) was measured by a microplate reader, suppressing action of the test substance was calculated based on the absorbance value in the absence of a test substance.

IC50 | SMILES
0.05 to 0.5 µM | N#Cc1ccc(-c2cn3c(-c4ccc(C(=O)NC5CC5)cc4)cnc3c(NCC3CCOCC3)n2)cn1 [Example 1-244]
0.5 to 1 µM | CC(C)CNc1nc(-c2ccsc2)cn2c(-c3ccc(C(=O)NC4CC4)cc3)cnc12 [Example 1-103]
1 to 10 µM | CC(C)CNc1nc(-c2cccc(C(=O)NCCCN(C)C)c2)cn2c(-c3ccc(C(=O)NC4CC4)cc3)cnc12 [Example 1-122]
0.5 to 1 µM | CC(C)CNc1nc(-c2ccc(S(=O)(=O)C(C)C)cc2)cn2c(-c3ccc(C(=O)NC4CC4)cc3)cnc12 [Example 1-116]
1 to 10 µM | CC(C)CNc1nc(-c2ccc(NC(=O)N3CCN(C)CC3)cc2)cn2c(-c3ccc(C(=O)NC4CC4)cc3)cnc12 [Example 1-160]
1 to 10 µM | CC(C)CNc1nc(-c2cccc(NC(=O)[C@@H](N)CO)c2)cn2c(-c3ccc(C(=O)NC4CC4)cc3)cnc12 [Example 1-159]
0.5 to 1 µM | CC(C)CNc1nc(-c2cccnc2)cn2c(-c3ccc(C(=O)NC4CC4)cc3)cnc12 [Example 1-107]
0.05 to 0.5 µM | CC(C)CNc1nc(CCc2ccc(C(=O)O)cc2)cn2c(-c3ccc(C(=O)NC4CC4)cc3)cnc12 [Example 1-175]
0.05 to 0.5 µM | O=C(NC1CC1)c1ccc(-c2cnc3c(NCC4CCOCC4)nc(-c4ccsc4)cn23)cc1 [Example 1-177]
1 to 10 µM | CC(C)CNc1nc(-c2cccc(NC(=O)N3CCOCC3)c2)cn2c(-c3ccc(C(=O)NC4CC4)cc3)cnc12 [Example 1-155]
0.05 to 0.5 µM | CC(C)CNc1nc(-c2ccccc2N)cn2c(-c3ccc(C(=O)NC4CC4)cc3)cnc12 [Example 1-123]
0.5 to 1 µM | CC(=O)N1CC=C(c2cn3c(-c4ccc(C(=O)NC5CC5)cc4)cnc3c(NCC3CCOCC3)n2)CC1 [Example 1-249]
0.05 to 0.5 µM | CC(C)CNc1nc(-c2ccc(C(N)=O)cc2)cn2c(-c3ccc(C(=O)NC4CC4)cc3)cnc12 [Example 1-151]
0.5 to 1 µM | Cc1nc(C)c(-c2cc(NCC(C)C)c3ncc(-c4ccc(C(=O)NC5CC5)cc4)n3n2)s1 [Example 2-8]
0.5 to 1 µM | CC(C)CNc1nc(-c2cccc(C#N)c2)cn2c(-c3ccc(C(=O)NC4CC4)cc3)cnc12 [Example 1-106]
0.05 to 0.5 µM | CC(C)CNc1nc(-c2ccncc2)cn2c(-c3ccc(C(=O)NC4CC4)cc3)cnc12 [Example 1-111]
0.5 to 1 µM | CC(C)CNc1nc(-c2cccc(C(N)=O)c2)cn2c(-c3ccc(C(=O)NC4CC4)cc3)cnc12 [Example 1-143]
0.5 to 1 µM | CC(C)CNc1nc(-c2cccc(C(=O)NCCN3CCOCC3)c2)cn2c(-c3ccc(C(=O)NC4CC4)cc3)cnc12 [Example 1-139]
1 to 10 µM | CC(C)CNc1nc(-c2ccc(C(=O)NCCN3CCOCC3)cc2)cn2c(-c3ccc(C(=O)NC4CC4)cc3)cnc12 [Example 1-147]

IC50 | SMILES
1 to 10 µM | CC(C)CNc1nc(-c2cccc(C(=O)NCCCN3CCN(C)CC3)c2)cn2c(-c3ccc(C(=O)NC4CC4)cc3)cnc12 [Example 1-138]
0.5 to 1 µM | CC(=O)Nc1ccc(-c2cn3c(-c4ccc(C(=O)NC5CC5)cc4)cnc3c(NCC(C)C)n2)cc1 [Example 1-163]
1 to 10 µM | CC(C)CNc1nc(-c2ccc(C(=O)N3CCOCC3)cc2)cn2c(-c3ccc(C(=O)NC4CC4)cc3)cnc12 [Example 1-153]
0.5 to 1 µM | CC(C)CNc1nc(-c2ccc(NC(=O)N3CCCC3)cc2)cn2c(-c3ccc(C(=O)NC4CC4)cc3)cnc12 [Example 1-121]
1 to 10 µM | O=C(NC1CC1)c1ccc(-c2cnc3c(NCC4CCOCC4)nc(C4=CCNCC4)cn23)cc1 [Example 1-247]
0.05 to 0.5 µM | O=C(NC1CC1)c1ccc(-c2cnc3c(NCC4CCOCC4)nc(-c4ccncc4)cn23)cc1 [Example 1-179]
1 to 10 µM | CC(C)CNc1nc(-c2cccc(CN3CCOCC3)c2)cn2c(-c3ccc(C(=O)NC4CC4)cc3)cnc12 [Example 1-127]
1 to 10 µM | CC(C)CNc1nc(-c2ccc(C(=O)NCCS(C)(=O)=O)cc2)cn2c(-c3ccc(C(=O)NC4CC4)cc3)cnc12 [Example 1-149]
0.05 to 0.5 µM | N#Cc1ccc(-c2cn3c(-c4ccc(C(=O)NC5CC5)cc4)cnc3c(NCC3CCOCC3)n2)cc1F [Example 1-246]
1 to 10 µM | CC(C)CNc1nc(-c2ccc(OCCN3CCOCC3)cc2)cn2c(-c3ccc(C(=O)NC4CC4)cc3)cnc12 [Example 1-117]
0.5 to 1 µM | CC(C)CNc1nc(-c2ccc3occc(=O)c3c2)cn2c(-c3ccc(C(=O)NC4CC4)cc3)cnc12 [Example 1-110]
0.5 to 1 µM | CC(=O)Nc1cccc(-c2cn3c(-c4ccc(C(=O)NC5CC5)cc4)cnc3c(NCC(C)C)n2)c1 [Example 1-157]
0.5 to 1 µM | CC(C)CNc1nc(-c2cccc(N)c2)cn2c(-c3ccc(C(=O)NC4CC4)cc3)cnc12 [Example 1-124]
1 to 10 µM | CC(C)CNc1nc(-c2ccc(NC(=O)N3CCOCC3)cc2)cn2c(-c3ccc(C(=O)NC4CC4)cc3)cnc12 [Example 1-161]
0.5 to 1 µM | CC(C)CNc1nc(-c2cccc(NCC3CCN(C)CC3)c2)cn2c(-c3ccc(C(=O)NC4CC4)cc3)cnc12 [Example 1-168]
1 to 10 µM | CC(C)CNc1nc(-c2cccc(C(=O)N3CCN(C)CC3)c2)cn2c(-c3ccc(C(=O)NC4CC4)cc3)cnc12 [Example 1-144]
0.5 to 1 µM | COCC(=O)Nc1cccc(-c2cn3c(-c4ccc(C(=O)NC5CC5)cc4)cnc3c(NCC(C)C)n2)c1 [Example 1-156]
0.05 to 0.5 µM | COCCNC(=O)c1cccc(-c2cn3c(-c4ccc(C(=O)NC5CC5)cc4)cnc3c(NCC(C)C)n2)c1 [Example 1-140]
1 to 10 µM | CC(C)CNc1nc(-c2cccc(C(=O)NCCS(C)(=O)=O)c2)cn2c(-c3ccc(C(=O)NC4CC4)cc3)cnc12 [Example 1-141]

IC50 | SMILES
1 to 10 µM | CC(C)CNc1nc(-c2cccc(NC(=O)N3CCN(C)CC3)c2)cn2c(-c3ccc(C(=O)NC4CC4)cc3)cnc12 [Example 1-154]
1 to 10 µM | COCC(=O)Nc1ccc(-c2cn3c(-c4ccc(C(=O)NC5CC5)cc4)cnc3c(NCC(C)C)n2)cc1 [Example 1-162]
0.5 to 1 µM | C/C=C/c1cn2c(-c3ccc(C(=O)NC4CC4)cc3)cnc2c(NCC2CCOCC2)n1 [Example 1-243]
0.05 to 0.5 µM | N#Cc1ccc(-c2cn3c(-c4ccc(C(=O)NC5CC5)cc4)cnc3c(NCC3CCOCC3)n2)c(N)c1 [Example 1-245]
0.05 to 0.5 µM | CC(C)CNc1nc(-c2ccc(N)cc2)cn2c(-c3ccc(C(=O)NC4CC4)cc3)cnc12 [Example 1-114]
1 to 10 µM | CC(C)CNc1nc(-c2ccc(C(=O)c3ccccc3)cc2)cn2c(-c3ccc(C(=O)NC4CC4)cc3)cnc12 [Example 1-125]
1 to 10 µM | CC(C)CNc1nc(C2=CCCC2)cn2c(-c3ccc(C(=O)NC4CC4)cc3)cnc12 [Example 1-108]
1 to 10 µM | CC(C)CNc1nc(-c2cccc(NCCCN)c2)cn2c(-c3ccc(C(=O)NC4CC4)cc3)cnc12 [Example 1-166]
1 to 10 µM | CC(C)CNc1nc(-c2ccc(O)c(Cl)c2)cn2c(-c3ccc(C(=O)NC4CC4)cc3)cnc12 [Example 1-120]
1 to 10 µM | CC(C)CNc1nc(-c2ccc(NC3CCOCC3)cc2)cn2c(-c3ccc(C(=O)NC4CC4)cc3)cnc12 [Example 1-170]
0.5 to 1 µM | CC(C)CNc1nc(-c2ccc(CNS(C)(=O)=O)cc2)cn2c(-c3ccc(C(=O)NC4CC4)cc3)cnc12 [Example 1-119]
0.5 to 1 µM | CC(C)CNc1nc(-c2cccc(NC3CCOCC3)c2)cn2c(-c3ccc(C(=O)NC4CC4)cc3)cnc12 [Example 1-167]
1 to 10 µM | O=C(NC1CC1)c1ccc(-c2cnc3c(NCC4CCOCC4)nc(CC4CCCCC4)cn23)cc1 [Example 1-250]
0.5 to 1 µM | CC(C)CNc1nc(-c2ccc(NC(=O)NCc3ccco3)cc2)cn2c(-c3ccc(C(=O)NC4CC4)cc3)cnc12 [Example 1-118]
0.5 to 1 µM | CC(C)CNc1nc(-c2cccc(NC(=O)CCCN3CCOCC3)c2)cn2c(-c3ccc(C(=O)NC4CC4)cc3)cnc12 [Example 1-158]
1 to 10 µM | O=C(NC1CC1)c1ccc(-c2cnc3c(NCC4CCOCC4)nc(C=C4CCCCC4)cn23)cc1 [Example 1-248]
0.5 to 1 µM | COCCNC(=O)c1ccc(-c2cn3c(-c4ccc(C(=O)NC5CC5)cc4)cnc3c(NCC(C)C)n2)cc1 [Example 1-148]
1 to 10 µM | CC(C)CNc1nc(-c2ccc(S(=O)(=O)N3CCCC3)cc2)cn2c(-c3ccc(C(=O)NC4CC4)cc3)cnc12 [Example 1-115]
1 to 10 µM | CC(C)CNc1nc(-c2ccc(NCCCN)cc2)cn2c(-c3ccc(C(=O)NC4CC4)cc3)cnc12 [Example 1-169]

same assay, conditions: Homo sapiens, A549, 72 h, read-out: A549 IC50 (μM)

SMILES | IC50
CCCNc1nccn2c(-c3ccc(C(=O)NC4CC4)cc3)cnc12 [Example 1-37] | 1 to 10 µM
CC(C)CCNc1nccn2c(-c3ccc(C(=O)NC4CC4)cc3)cnc12 [Example 1-43] | 1 to 10 µM
O=C(NC1CC1)c1ccc(-c2cnc3c(NCC4CCOCC4)nccn23)cc1 [Example 1-1, N-cyclopropyl-4-(8-((tetrahydro-2H-pyran-4-yl)methylamino)imidazo[1,2-a]pyrazin-3-yl)benzamide] | 1 to 10 µM
CC(C)CNc1nc(-c2ccccc2)cn2c(-c3ccc(C(=O)NC4CC4)cc3)cnc12 [Example 1-101] | 0.5 to 1 µM
CC(C)CNc1cc(-c2ccccc2)nn2c(-c3ccc(C(=O)NC4CC4)cc3)cnc12 [Example 2-7] | 0.5 to 1 µM
O=C(NC1CC1)c1ccc(-c2cnc3c(NCC4CC4)nccn23)cc1 [Example 1-36] | 1 to 10 µM
